US6489341B1 (Sepracor Inc., priority 1999, dated 2002)
Where two headings read alike, the source gives them in different places.

Columns and labels:
[1] = biological target: non-selective α1 receptor from rat cerebral cortex; test: Binding affinity at non-selective α1 receptor; conditions: for Ki: calculated inhibition constant, in parentheses; for IC50: concentration required to inhibit 50% specific binding
[2] = biological target: T1, human recombinant dopamine D2 receptor (Homo sapiens, UniProt P14416); test: Binding affinity at dopamine D2 receptor; conditions: for Ki: calculated inhibition constant, in parentheses; for IC50: concentration required to inhibit 50% specific binding
T1 construct: expressed in transfected cells
T1 sequence (P14416 whole entry): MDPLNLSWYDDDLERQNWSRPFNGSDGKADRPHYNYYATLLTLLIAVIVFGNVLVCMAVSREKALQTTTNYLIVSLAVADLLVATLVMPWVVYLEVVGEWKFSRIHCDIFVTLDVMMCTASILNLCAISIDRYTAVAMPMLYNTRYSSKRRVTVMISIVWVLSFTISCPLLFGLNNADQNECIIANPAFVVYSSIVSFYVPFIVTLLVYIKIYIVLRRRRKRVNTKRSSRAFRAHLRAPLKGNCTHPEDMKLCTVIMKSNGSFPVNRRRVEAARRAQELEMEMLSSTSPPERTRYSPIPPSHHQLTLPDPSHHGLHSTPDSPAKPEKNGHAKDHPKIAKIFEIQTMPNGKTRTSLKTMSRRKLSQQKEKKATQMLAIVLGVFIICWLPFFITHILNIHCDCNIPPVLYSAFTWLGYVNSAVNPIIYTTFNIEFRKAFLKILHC

[3] = biological target: T2, human recombinant dopamine D4 receptor (Homo sapiens, UniProt P21917); test: Binding affinity at dopamine D4 receptor; conditions: for Ki: calculated inhibition constant, in parentheses; for IC50: concentration required to inhibit 50% specific binding
T2 construct: expressed in transfected cells
T2 sequence (P21917 1-419): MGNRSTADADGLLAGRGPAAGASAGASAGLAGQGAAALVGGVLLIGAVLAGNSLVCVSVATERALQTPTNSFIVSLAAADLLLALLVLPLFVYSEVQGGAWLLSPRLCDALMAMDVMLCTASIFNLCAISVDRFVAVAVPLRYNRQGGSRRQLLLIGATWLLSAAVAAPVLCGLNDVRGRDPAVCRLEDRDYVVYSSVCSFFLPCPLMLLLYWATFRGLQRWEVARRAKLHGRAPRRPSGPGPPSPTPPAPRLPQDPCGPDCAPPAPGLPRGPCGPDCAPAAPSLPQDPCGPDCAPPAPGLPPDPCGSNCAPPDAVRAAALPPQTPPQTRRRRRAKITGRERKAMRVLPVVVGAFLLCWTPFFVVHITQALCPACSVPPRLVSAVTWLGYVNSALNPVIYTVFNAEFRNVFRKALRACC

[4] = biological target: T3, human recombinant serotonin 5-HT2A receptor (Homo sapiens, UniProt P28223); test: Binding affinity at serotonin 5-HT2A receptor; conditions: for 5-HT2A Selectivity (D2/5-HT2A): ratio of D2 to 5-HT2A IC50; for selectivity for 5-HT2A receptors versus D2 receptors (in words): conclusion from Table 1
T3 construct: expressed in transfected cells
T3 sequence (P28223 whole entry): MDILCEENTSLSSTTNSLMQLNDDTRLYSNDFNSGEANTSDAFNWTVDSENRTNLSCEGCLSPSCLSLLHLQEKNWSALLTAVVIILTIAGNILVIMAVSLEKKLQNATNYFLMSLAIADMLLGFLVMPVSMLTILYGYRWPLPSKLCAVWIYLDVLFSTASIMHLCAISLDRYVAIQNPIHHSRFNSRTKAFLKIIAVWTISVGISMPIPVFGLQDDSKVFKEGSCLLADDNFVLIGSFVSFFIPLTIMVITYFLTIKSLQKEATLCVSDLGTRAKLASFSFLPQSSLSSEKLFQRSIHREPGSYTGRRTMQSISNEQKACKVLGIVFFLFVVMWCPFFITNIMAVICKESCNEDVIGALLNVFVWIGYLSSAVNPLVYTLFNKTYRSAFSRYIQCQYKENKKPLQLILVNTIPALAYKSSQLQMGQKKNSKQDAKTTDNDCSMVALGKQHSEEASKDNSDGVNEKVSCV

[5] = calculated inhibition constant, in parentheses, human recombinant, read-out: Ki by Receptor 5-HT2A
[6] = concentration required to inhibit 50% specific binding, human recombinant, read-out: IC50 by Receptor 5-HT2A

Compound | Ki [1] [nM] | IC50 [1] [nM] | Ki [2] [nM] | IC50 [2] [nM] | Ki [3] [nM] | IC50 [3] [nM] | IC50 [4] [nM] | Ki [4] [nM] | 5-HT2A Selectivity (D2/5-HT2A) [4] | Ki [4, 5] [nM] | IC50 [4, 6] [nM] | selectivity for 5-HT2A receptors versus D2 receptors (in words) [4]
Fc1ccc(-n2cc(C3=CCNCC3)c3cc(Cl)ccc32)cc1 [Dehydro-Nor] | 28 | 102 | 8.8 | 34 | 116 | 379 | 25 | 16 | 1.4 |  |  | 
COc1cc2nc(N3CCN(C(=O)c4ccco4)CC3)nc(N)c2cc1OC [Prazosin, reference compound] | 0.087 | 0.32 |  |  |  |  |  |  |  |  |  | 
O=C1NCCN1CCN1CCC(c2cn(-c3ccc(F)cc3)c3ccc(Cl)cc23)CC1 [Sertindole, 1-[2-[4-[5-chloro-1-(4-fluorophenyl)-1H-indol-3-yl]-1-piperidinyl]ethyl]-2-imidazolidinone, reference compound] | 1.7 | 6.2 |  |  |  |  |  |  |  |  |  | 
O=C1CNC(=O)N1CCN1CCC(c2cn(-c3ccc(F)cc3)c3ccc(Cl)cc23)CC1 [5-Oxo, 1-[2-[4-[5-chloro-1-(4-fluorophenyl)-1H-indol-3-yl]piperidin-1-yl]ethyl]midazolidin-2,5-dione] | 3.3 | 12 | 11 | 44 | 96 | 315 |  |  | 2.4 | 11 | 18 | greater selectivity for 5-HT2A receptors than for D2 receptors
Fc1ccc(-n2cc(C3=CCNCC3)c3cc(Cl)ccc32)cc1 [Nor, 5-chloro-1-(4-fluorophenyl)-3-(1,2,3 6-tetrahydropvridin-4-yl)indole] | 13 | 49 | 20 | 78 | 333 | 1090 |  |  | 4.6 | 11 | 17 | greater selectivity for 5-HT2A receptors than for D2 receptors
